Measurements reported in ChEMBL document CHEMBL4840364, “Penicisteckins A-F, Isochroman-Derived Atropisomeric Dimers from Penicillium steckii HNNU-5B18” (J Nat Prod, 2021).
In brackets after ≈: the same amount, converted by molar mass.

Assays:
SH-SY5Y = assay: Cytotoxicity against human SH-SY5Y cells assessed as inhibition of cell viability measured for 48 hrs by CCK colorimetric assay; type: functional, cell-based
C6 = assay: Cytotoxicity against rat C6 cells assessed as inhibition of cell viability measured for 48 hrs by CCK colorimetric assay; type: functional, cell-based; conditions: C6, 48 h
HGC-27 = assay: Cytotoxicity against human HGC-27 cells assessed as inhibition of cell viability measured for 48 hrs by CCK colorimetric assay; type: functional, cell-based; conditions: HGC-27, 48 h
Staphylococcus aureus [1] = assay: Antibacterial activity against Staphylococcus aureus ATCC 29213 assessed as bacterial growth inhibition incubated for 20 hrs by broth micro dilution method; type: functional
Staphylococcus aureus [2] = assay: Antibacterial activity against methicillin-resistant Staphylococcus aureus assessed as bacterial growth inhibition incubated for 20 hrs by broth micro dilution method; type: functional

SMILES | IC50 (SH-SY5Y) [µM] | IC50 (C6) [µM] | IC50 (HGC-27) [µM] | MIC (Staphylococcus aureus [1]) [mg/L] | MIC (Staphylococcus aureus [2]) [mg/L]
COC1=C(c2c(O)cc(OC)c3c2C[C@H](C)OC3)C(=O)C(C)=C(C[C@@H](C)O)C1=O (atropisomer aS) | < 10 | < 10 | < 10 | – | –
COc1c2c(c(C)c(O)c1-c1c(O)c(C)c3c(c1OC)CO[C@@H](C)C3)C[C@H](C)OC2 (atropisomer aR) | < 10 | < 10 | < 10 | – | –
COC1=CC(=O)C(C)=C(C[C@@H](C)O)C1=O | < 10 | < 10 | < 10 | 2 (≈ 9.51 µM) | 8 (≈ 38.1 µM)
COc1cc(O)c(C)c2c1CO[C@@H](C)C2 | < 10 | < 10 | < 10 | – | –
COc1cc(O)c(-c2c(O)c(C)c3c(c2OC)CO[C@@H](C)C3)c2c1CO[C@@H](C)C2 (atropisomer aS) | < 10 | < 10 | < 10 | – | –
